Test results reported in paper PMC11571054, “Unveiling the GT114 family: Structural characterization of A075L, a glycosyltransferase from Paramecium bursaria chlorella virus‐1 (PBCV‐1)” (Protein Science : A Publication of the Protein Society, 2024).
pKd: −log10 of the molar value.

What was measured:
[1] = target: T1, A075L (Paramecium bursaria Chlorella virus 1, UniProt Q89410); test: STD-NMR; type: binding; conditions: 1:40 enzyme-acceptor ratio; 25 °C; binds but is not glycosylated
T1 construct: recombinant in E. coli BL21 Gold (SeMet in B834); GST tag cut with PreScission protease; GST kept only for mutant D73A
T1 sequence (Q89410 1-280): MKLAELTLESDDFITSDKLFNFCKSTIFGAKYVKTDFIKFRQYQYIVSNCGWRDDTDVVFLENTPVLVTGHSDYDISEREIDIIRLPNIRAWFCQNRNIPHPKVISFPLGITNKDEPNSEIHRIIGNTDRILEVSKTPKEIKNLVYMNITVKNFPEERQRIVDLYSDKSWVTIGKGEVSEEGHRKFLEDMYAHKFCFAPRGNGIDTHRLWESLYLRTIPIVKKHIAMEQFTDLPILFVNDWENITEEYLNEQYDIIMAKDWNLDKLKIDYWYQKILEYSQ

[2] = target: T1, A075L; test: ITC; type: binding

| Compound | STD-NMR [1] | pKd [2] |
| --- | --- | --- |
| CCCCCCCCO[C@@H]1O[C@@H](C)[C@@H](O)[C@@H](O)[C@@H]1O[C@H]1O[C@H](CO)[C@H](O)[C@H](O)[C@H]1O [compound 5, α‐D‐Gal‐(1 → 2)‐α‐L‐Fuc‐Octyl] | despite their lower reactivity, both disaccharides can be accommodated in the binding site |  |
| O=c1ccn([C@@H]2O[C@H](COP(=O)(O)OP(=O)(O)O[C@H]3OC[C@@H](O)[C@H](O)[C@H]3O)[C@@H](O)[C@H]2O)c(=O)[nH]1 [compound 1, UDP‐α‐D‐Xyl] |  | 4.51 |
